The values that follow come from article PMC12195777, “Improved Bioavailability of Stilbenes from Cajanus cajan (L.) Millsp. Leaves Achieved by Hydroxypropyl-β-Cyclodextrin Inclusion: Preparation, Characterization and Pharmacokinetic Assessment” (Molecules, 2025).

A short description of data set [1]: In vivo pharmacokinetic study in rats after oral administration (UPLC-QqQ-MS/MS of plasma). The conditions noted are these: for AUC(0-inf) / AUC(0-t) / Cmax / Tmax / half-life: male, SD, rat, plasma, n = 6; for relative bioavailability / time at which peak plasma concentration (Cmax) was reached: oral; for relative bioavailability: from the inclusion complex, using CCMLE as a reference; for time at which peak plasma concentration (Cmax) was reached: post-administration (Figure 6). The arrangement: species or system SD rats. The procedure: Healthy male SD rats weighing 200 ± 20 g were housed in a specific pathogen-free (SPF) facility under controlled conditions (24 ± 1 °C, 50 ± 10% relative humidity) with a 12 h light/dark cycle. The animals were free to access purified water and a standard laboratory diet for a 1-week acclimatization period. After acclimatization, the rats were randomly divided into three groups (n = 6 per group): the control group (con), CCMLE group and stilbene/HP-β-CD inclusion complex group. The CCMLE group received an oral dose of 232 mg/kg CCMLE, while the stilbene/HP-β-CD inclusion complex group received 2.1 g/kg of the inclusion complex by oral gavage, with both containing the same amount of stilbenes. All animal experiments were performed in accordance with the National Institutes of Health Guide for the Care and Use of Laboratory Animals (NIH Publication No. 85-23, revised in 1996). The study protocol was approved by the Animal Care and Use Committee of Zhejiang University of Technology (approval number MGS20231227194).
Blood samples (approximately 300 μL) were collected via the retro-orbital venous plexus before dosing and at the following post-dose times of 5 min, 15 min, 30 min, 1 h, 1.5 h, 2 h, 4 h, 6 h, 8 h, 12 h and 24 h. Each sample was placed in an EDTA anticoagulation tube to prevent coagulation. The tubes were then centrifuged at 3500 rpm for 10 min. The upper layer of supernatant (plasma) was carefully collected and stored at −80 °C until further analysis.
The plasma samples stored at −80 °C were thawed at room temperature prior to processing. For each analysis, 100 μL of the plasma sample was accurately transferred into a centrifuge tube, followed by the addition of 40 μL of a chloramphenicol (CHL) solution (1 mg/mL) used as an internal standard (IS) and 260 μL methanol. The mixture was vortexed for 3 min to ensure thorough homogenisation and then centrifuged at 13,000 rpm for 10 min at 4 °C to precipitate proteins and other insoluble components. For analysis, 10 μL of the supernatant was injected into a ultra-high-performance liquid chromatography–triple-quadrupole tandem mass spectrometry (UPLC-QqQ-MS/MS) system.
The bioavailabilities of three stilbenes (LLC, CSA and MPA) in CCMLE and the stilbene/HP-β-CD inclusion complex were analyzed using a Waters Xevo TQ-S micro-mass spectrometry system (Waters, Milford, MA, USA) coupled to a Waters H-Class UPLC system. Chromatographic separation was performed on a Waters H-Class UPLC system equipped with a Welch Ultimate® UHPLC LP-C18 column (Waters, Milford, MA, USA, 2.1 × 50 mm, 1.8 μm) at 30 °C. The injection volume was 10 μL. The mobile phase consisted of ultrapure water (A) and acetonitrile (B) with a flow rate of 0.3 mL/min and an elution gradient programme as follows: 0–0.2 min, 90% A; 0.2–1.5 min, 90–5% A; 1.5–3.5 min, 5% A; and 3.5–5 min, 5–90% A.
Mass spectrometric analysis was performed on a Waters Xevo TQ-S micro system using electrospray ionization in the negative mode (ESI^−). The capillary voltage was 2.71 kV, and the ion source temperature was 150 °C. Nitrogen was used as the desolventizing gas and the cone pore gas, and argon was used as the collision gas. Data acquisition was performed in the multiple-reaction-monitoring (MRM) mode for all analytes.
The relative bioavailability of CSA, LLC and MPA in the stilbene/HP-β-CD inclusion complex was calculated using Equation (8), with CCMLE used as a reference:(8) Frel=AUCstilbenes/HP−β−CD/AUCCCMLE·DCCMLE/Dstilbenes/HP−β−CD·100% where AUCstilbenes/HP-β-CD and AUCCCMLE represent the areas under the blood concentration–time curve, and Dstilbenes/HP-β-CD and DCCMLE represent the orally administered dose (mg/kg).
DAS 2.0 software was used to calculate the pharmacokinetic parameters, including the area under the plasma concentration–time curve (AUC), maximum plasma concentration (Cmax), time to reach Cmax (tmax) and elimination half-life (t1/2), using a non-compartmental model. […]

The nature of data set [2]: Tissue distribution study in rats after oral administration. The class given is in vivo. The conditions noted are these: oral CCMLE or inclusion complex, heart, liver, spleen, lungs, kidneys, brain. The protocol: The tissue distribution study followed the same experimental grouping and dosing protocols described in Section 3.12. Thirty minutes after dosing, the rats were euthanized and their tissues (including their heart, liver, spleen, lungs, kidneys and brain) were immediately collected. Each tissue was rinsed with a 0.9% NaCl solution, gently dried with filter paper, weighed and stored at −80 °C until analysis.
For sample preparation, 0.2 g of each tissue was homogenized in 0.5 mL of a 0.9% NaCl solution using a high-throughput tissue grinder (Jingxin, Shanghai, China). Next, 300 μL of the tissue homogenate was mixed with 50 μL of a CHL solution and 850 μL of methanol, vortexed for 3 min and centrifuged at 13,000 rpm for 10 min at 4 °C. Then 10 μL of the supernatant was injected into the UPLC-QqQ-MS/MS system for analysis.

The conditions of data set [3]: quoted without reference; cited from earlier work.
The mark [4] stands for this setting: oral stilbene/HP-β-CD inclusion complex 2.1 g/kg.

Regarding `COc1cc(/C=C/c2ccccc2)c(C(=O)O)c(O)c1CC=C(C)C` [CSA, cajaninstilbene acid], in data set [1] (oral CCMLE 232 mg/kg), the AUC(0-inf) is 0.17 ± 0.066 µg·h/mL, the exposure AUC(0-t) was 0.12 ± 0.041 µg·h/mL, the Cmax stood at 0.048 µg/mL and the time to peak (Tmax) amounted to 0.3 ± 0.1 h. This compound also gave a half-life in data set [1] (oral CCMLE 232 mg/kg) of 11 ± 5.6 h. In data set [1] (setting [4]), the AUC(0-inf) was found to be 0.47 ± 0.16 µg·h/mL, the AUC(0-t) is 0.24 ± 0.082 µg·h/mL, the highest level (Cmax) was 0.14 ± 0.06 µg/mL and the Tmax was 0.3 ± 0.1 h. Besides, the half-life in data set [1] (setting [4]) is 13 ± 9.9 h. For the same compound, in data set [1], the relative bioavailability is 198% and the “time at which peak plasma concentration (Cmax) was reached” value was 15 min. Further, the tissue-specific accumulation entry in data set [2] is “predominately concentrated in the liver”.
On to `COc1cc(O)cc(/C=C/c2ccccc2)c1CC=C(C)C` [LLC, longistyle C], for which, in data set [1] (oral CCMLE 232 mg/kg), the total exposure AUC(0-inf) stood at 0.01 ± 0.0093 µg·h/mL, the AUC(0-t) stood at 0.0058 ± 0.0029 µg·h/mL, the highest concentration (Cmax) worked out at 0.0007 ± 0.0005 µg/mL and the Tmax was 0.3 ± 0.1 h. The compound further had a half-life in data set [1] (oral CCMLE 232 mg/kg) of 14 ± 8.7 h. Besides, in data set [1] (setting [4]), the AUC(0-inf) came to 0.012 ± 0.0067 µg·h/mL, the AUC(0-t) turned out to be 0.01 ± 0.0067 µg·h/mL, the peak concentration (Cmax) came to 0.0045 ± 0.002 µg/mL and the Tmax turned out to be 0.5 h. In data set [1] (setting [4]), the half-life was 6 h. Further, the relative bioavailability in data set [1] is listed as 177%. Besides, the tissue-specific accumulation result in data set [2] was “higher concentrations in the heart and lungs”.
With `COc1cc(O)c(C(=O)O)c(/C=C/c2ccccc2)c1` [MPA, 4-O-methylpinosylvic acid], in data set [1] (oral CCMLE 232 mg/kg), the total exposure AUC(0-inf) was determined as 0.58 ± 0.17 µg·h/mL, the AUC(0-t) was 0.56 ± 0.16 µg·h/mL, the Cmax was determined as 0.23 ± 0.06 µg/mL and the time of peak concentration (Tmax) is 0.4 ± 0.3 h. Further, the half-life in data set [1] (oral CCMLE 232 mg/kg) is 5.5 ± 1.7 h. In addition, in data set [1] (setting [4]), the total exposure AUC(0-inf) worked out at 0.803 ± 0.14 µg·h/mL, the AUC(0-t) amounted to 0.74 ± 0.1 µg·h/mL, the peak level (Cmax) was 0.44 ± 0.13 µg/mL and the Tmax is 0.3 ± 0.1 h. Also, the half-life in data set [1] (setting [4]) was 9 ± 4.1 h. Further, in data set [1], the relative bioavailability is 131% and the “time at which peak plasma concentration (Cmax) was reached” value amounted to 15 min. Besides, the tissue-specific accumulation entry in data set [2] is “relatively higher levels in the liver, lungs and kidneys”.
As for `Oc1ccc(/C=C/c2cc(O)cc(O)c2)cc1` [resveratrol], the “pKa of phenolic hydroxyl groups” value in data set [3] is 9.5–10.

As usually defined, the AUC(0-inf) is total exposure, with the tail of the curve extrapolated. A high value points to more exposure. A word on the AUC(0-t): it is the area under the concentration-time curve up to a stated or last time point. Usually Cmax stands for the highest concentration seen after dosing. The term Tmax denotes the time at which the peak concentration occurs. The half-life is how long it takes for the measured level to halve. The low end stands for fast loss, the high end for slow loss.
